# Patent publication US12077503B2, “Substituted cyclic amides and their use as herbicides” (FMC CORPORATION, priority 2015, dated 2024)
# Columns and labels:
# Assay in all cases: Test D preemergence
# Format in all cases: in vivo
# Settings in all cases: scale 0 to 100
# [1] = test system: speedwell (bird's-eye speedwell, Veronica persica)
# Text: (§1) Seeds of plant species selected from bluegrass (annual bluegrass, Poa annua), blackgrass (Alopecurus myosuroides), canarygrass (littleseed canarygrass, Phalaris minor), chickweed (common chickweed, Stellaria media), Galium (catchweed bedstraw, Galium aparine), bromegrass, downy (downy bromegrass, Bromus tectorum), field poppy (Papaver rhoeas), field violet (Viola arvensis), foxtail, green (green foxtail, Setaria viridis), deadnettle (henbit deadnettle, Lamium amplexicaule), ryegrass, Italian (Italian ryegrass, Lolium multiflorum), Kochia (Kochia scoparia), lambsquarters (Chenopodium album), oilseed rape (Brassica napus), pigweed (Amaranthus retroflexus), chamomile (scentless chamomile, Matricaria inodora), Russian thistle (Salsola kali), speedwell (bird's-eye speedwell, Veronica persica), barley, spring (spring barley, Hordeum vulgare), wheat, spring (spring wheat, Triticum aestivum), buckwheat, wild (wild buckwheat, Polygonum convolvulus), mustard, wild (wild mustard, Sinapis arvensis), oat, wild (wild oat, Avena fatua), radish, wild (wild radish, Raphanus raphanistrum), windgrass (Apera spica-venti), barley, winter (winter barley Hordeum vulgare), and wheat, winter (winter wheat, Triticum aestivum) were planted into a silt loam soil and treated preemergence with test chemicals formulated in a non-phytotoxic solvent mixture which included a surfactant.
# (§2) Treated plants and controls were maintained in a controlled growth environment approximately 21 d after which time all species were compared to controls and visually evaluated. Plant response ratings, summarized in Table D, are based on a scale of 0 to 100 where 0 is no effect and 100 is complete control. A dash (-) response means no test result.
# [2] = test system: chamomile (scentless chamomile, Matricaria inodora)
# Text: as §1, §2
# [3] = test system: Russian thistle (Salsola kali)
# Text: as §1, §2
# [4] = test system: chickweed (common chickweed, Stellaria media)
# Text: as §1, §2
# [5] = test system: field poppy (Papaver rhoeas)
# Text: as §1, §2
# [6] = test system: Galium (catchweed bedstraw, Galium aparine)
# Text: as §1, §2
# [7] = test system: bromegrass, downy (downy bromegrass, Bromus tectorum)
# Text: as §1, §2
# [8] = test system: barley, spring (spring barley, Hordeum vulgare)
# Text: as §1, §2
# [9] = test system: barley, winter (winter barley Hordeum vulgare)
# Text: as §1, §2
# [10] = test system: oilseed rape (Brassica napus)
# Text: as §1, §2
# [11] = test system: wheat, winter (winter wheat, Triticum aestivum)
# Text: as §1, §2
# [12] = test system: wheat, spring (spring wheat, Triticum aestivum)
# Text: as §1, §2
# [13] = test system: foxtail, green (green foxtail, Setaria viridis)
# Text: as §1, §2
# [14] = test system: windgrass (Apera spica-venti)
# Text: as §1, §2
# [15] = test system: lambsquarters (Chenopodium album)
# Text: as §1, §2
# [16] = test system: ryegrass, Italian (Italian ryegrass, Lolium multiflorum)
# Text: as §1, §2
# [17] = test system: canarygrass (littleseed canarygrass, Phalaris minor)
# Text: as §1, §2
# [18] = test system: oat, wild (wild oat, Avena fatua)
# Text: as §1, §2
# Kochia (Kochia scoparia) = test system: Kochia (Kochia scoparia)
# Text: as §1, §2
# [19] = test system: buckwheat, wild (wild buckwheat, Polygonum convolvulus)
# Text: as §1, §2
# [20] = test system: blackgrass (Alopecurus myosuroides)
# Text: as §1, §2
# [21] = test system: bluegrass (annual bluegrass, Poa annua)
# Text: as §1, §2
smiles,measurement,setting,value
"CN1C[C@H](c2ccc(C(F)(F)F)cc2)[C@@H](C(=O)Nc2cccc(F)c2F)C1=O [Compound 623, (3S,4S)—N-(2,3-difluorophenyl)-1-methyl-2-oxo-4-[4-(trifluoromethyl)phenyl]-3-pyrrolidinecarboxamide]",Plant response rating: Speedwell,[1]; 31 g ai/ha,95
same,Plant response rating: Speedwell,[1]; 62 g ai/ha,100
same,Plant response rating: Speedwell,[1]; 125 g ai/ha,100
same,Plant response rating: Speedwell,[1]; 250 g ai/ha,90
same,Plant response rating: Chamomile,[2]; 31 g ai/ha,20
same,Plant response rating: Chamomile,[2]; 62 g ai/ha,80
same,Plant response rating: Chamomile,[2]; 125 g ai/ha,85
same,Plant response rating: Chamomile,[2]; 250 g ai/ha,100
same,Plant response rating: Russian Thistle,[3]; 31 g ai/ha,15
same,Plant response rating: Russian Thistle,[3]; 62 g ai/ha,25
same,Plant response rating: Russian Thistle,[3]; 125 g ai/ha,60
same,Plant response rating: Russian Thistle,[3]; 250 g ai/ha,70
same,Plant response rating: Chickweed,[4]; 31 g ai/ha,65
same,Plant response rating: Chickweed,[4]; 62 g ai/ha,95
same,Plant response rating: Chickweed,[4]; 125 g ai/ha,95
same,Plant response rating: Chickweed,[4]; 250 g ai/ha,95
same,Plant response rating: Field Poppy,[5]; 31 g ai/ha,80
same,Plant response rating: Field Poppy,[5]; 62 g ai/ha,80
same,Plant response rating: Field Poppy,[5]; 125 g ai/ha,85
same,Plant response rating: Field Poppy,[5]; 250 g ai/ha,100
same,Plant response rating: Galium,[6]; 31 g ai/ha,0
same,Plant response rating: Galium,[6]; 62 g ai/ha,5
same,Plant response rating: Galium,[6]; 125 g ai/ha,15
same,Plant response rating: Galium,[6]; 250 g ai/ha,80
same,"Plant response rating: Bromegrass, Downy",[7]; 31 g ai/ha,15
same,"Plant response rating: Bromegrass, Downy",[7]; 62 g ai/ha,30
same,"Plant response rating: Bromegrass, Downy",[7]; 125 g ai/ha,40
same,"Plant response rating: Bromegrass, Downy",[7]; 250 g ai/ha,65
same,"Plant response rating: Barley, Spring",[8]; 31 g ai/ha,5
same,"Plant response rating: Barley, Spring",[8]; 62 g ai/ha,15
same,"Plant response rating: Barley, Spring",[8]; 125 g ai/ha,35
same,"Plant response rating: Barley, Spring",[8]; 250 g ai/ha,65
same,"Plant response rating: Barley, Winter",[9]; 31 g ai/ha,5
same,"Plant response rating: Barley, Winter",[9]; 62 g ai/ha,10
same,"Plant response rating: Barley, Winter",[9]; 125 g ai/ha,40
same,"Plant response rating: Barley, Winter",[9]; 250 g ai/ha,65
same,Plant response rating: Oilseed Rape,[10]; 31 g ai/ha,15
same,Plant response rating: Oilseed Rape,[10]; 62 g ai/ha,20
same,Plant response rating: Oilseed Rape,[10]; 125 g ai/ha,25
same,Plant response rating: Oilseed Rape,[10]; 250 g ai/ha,75
same,"Plant response rating: Wheat, Winter",[11]; 31 g ai/ha,5
same,"Plant response rating: Wheat, Winter",[11]; 62 g ai/ha,20
same,"Plant response rating: Wheat, Winter",[11]; 125 g ai/ha,20
same,"Plant response rating: Wheat, Winter",[11]; 250 g ai/ha,40
same,"Plant response rating: Wheat, Spring",[12]; 31 g ai/ha,5
same,"Plant response rating: Wheat, Spring",[12]; 62 g ai/ha,10
same,"Plant response rating: Wheat, Spring",[12]; 125 g ai/ha,20
same,"Plant response rating: Wheat, Spring",[12]; 250 g ai/ha,45
same,"Plant response rating: Foxtail, Green",[13]; 31 g ai/ha,95
same,"Plant response rating: Foxtail, Green",[13]; 62 g ai/ha,98
same,"Plant response rating: Foxtail, Green",[13]; 125 g ai/ha,98
same,"Plant response rating: Foxtail, Green",[13]; 250 g ai/ha,98
same,Plant response rating: Windgrass,[14]; 31 g ai/ha,85
same,Plant response rating: Windgrass,[14]; 62 g ai/ha,90
same,Plant response rating: Windgrass,[14]; 125 g ai/ha,95
same,Plant response rating: Windgrass,[14]; 250 g ai/ha,95
same,Plant response rating: Lambsquarters,[15]; 31 g ai/ha,55
same,Plant response rating: Lambsquarters,[15]; 62 g ai/ha,60
same,Plant response rating: Lambsquarters,[15]; 125 g ai/ha,80
same,Plant response rating: Lambsquarters,[15]; 250 g ai/ha,95
same,"Plant response rating: Ryegrass, Italian",[16]; 31 g ai/ha,0
same,"Plant response rating: Ryegrass, Italian",[16]; 62 g ai/ha,15
same,"Plant response rating: Ryegrass, Italian",[16]; 125 g ai/ha,40
same,"Plant response rating: Ryegrass, Italian",[16]; 250 g ai/ha,65
same,Plant response rating: Canarygrass,[17]; 31 g ai/ha,25
same,Plant response rating: Canarygrass,[17]; 62 g ai/ha,70
same,Plant response rating: Canarygrass,[17]; 125 g ai/ha,85
same,Plant response rating: Canarygrass,[17]; 250 g ai/ha,85
same,"Plant response rating: Oat, Wild",[18]; 31 g ai/ha,25
same,"Plant response rating: Oat, Wild",[18]; 62 g ai/ha,30
same,"Plant response rating: Oat, Wild",[18]; 125 g ai/ha,55
same,"Plant response rating: Oat, Wild",[18]; 250 g ai/ha,60
same,Plant response rating: Kochia,Kochia (Kochia scoparia); 31 g ai/ha,25
same,Plant response rating: Kochia,Kochia (Kochia scoparia); 62 g ai/ha,75
same,Plant response rating: Kochia,Kochia (Kochia scoparia); 125 g ai/ha,95
same,Plant response rating: Kochia,Kochia (Kochia scoparia); 250 g ai/ha,95
same,"Plant response rating: Buckwheat, Wild",[19]; 31 g ai/ha,0
same,"Plant response rating: Buckwheat, Wild",[19]; 62 g ai/ha,10
same,"Plant response rating: Buckwheat, Wild",[19]; 125 g ai/ha,15
same,"Plant response rating: Buckwheat, Wild",[19]; 250 g ai/ha,45
same,Plant response rating: Blackgrass,[20]; 31 g ai/ha,30
same,Plant response rating: Blackgrass,[20]; 62 g ai/ha,40
same,Plant response rating: Blackgrass,[20]; 125 g ai/ha,45
same,Plant response rating: Blackgrass,[20]; 250 g ai/ha,70
same,Plant response rating: Bluegrass,[21]; 31 g ai/ha,25
same,Plant response rating: Bluegrass,[21]; 62 g ai/ha,65
same,Plant response rating: Bluegrass,[21]; 125 g ai/ha,70
same,Plant response rating: Bluegrass,[21]; 250 g ai/ha,85
